One test deals with isolated glands. How it is done:
In this series of studies Rats were given free access to water and normal rat chow for a period of 5 days. In one group 30 μM ZnSO4.7H2O was added to the drinking water so that the animals are getting a constant exposure of ZnSO4.7H2O. At the end of the 5 day period the animals were sacrificed and the stomach removed. We examined how these glands performed to addition of a secretagogue as previously defined in Protocol 1. In the second group we repeated the study giving 3 μM ZnSO4.7H2O for the 5 day period while allowing normal access to food and water.

A further test deals with isolated human glands. The following applies: for inhibitory effect on secretagogue induced acid secretion, in words: human gastric glands. The method, then: (§1) In this series of studies we used glands from rats that have been fasted for 18 hours with free access to water to reduce basal acid secretion to zero. Following isolation the glands were placed in a perfusion chamber that was maintained at 37° C. Prior to exposure to the Zn solution the glands were loaded with the Fluorescent reagent BCECF to monitor intracellular pH, this is based on technology we have used in the lab. In these studies we stimulated acid secretion by exposing the individual glands to 200 μM Carbachol a well characterized activator of acid secretion. In parallel to these studies (Control glands) we exposed glands from the same animal to a solution that contained ZnSO4.7H2O. […] In subsequent studies we then reduced the concentration of ZnSO4.7H2O by an order of magnitude ([…]) and repeated the study. For each dose used a minimum of 5 animals was used. […] We reduced to a concentration of 0.03 μM.
Note that doses of 300 μM and 3 μM were used. […] All data are the means from 5 separate human samples.

The test system of the next test is isolated gastric glands. The following applies: for reduction in secretagogue induced proton secretion (proton extrusion, acid production): Carbachol 200 μM, means from 5 rats; for inhibitory effect on secretagogue induced acid secretion, in words: rat gastric glands. How it is done:
as §1

The next test has as its system isolated stomachs. The following applies: simultaneous with secretagogue, 15 minute exposure, fasted rats. How it is done: We took age and sex matched animals for these studies. The stomach was excised and perfused with 0.5 ml of nonbuffered saline solution in vitro with a solution of either 200 μM Carbachol or ZnSO4.7H2O+200 μM Carbachol following a 15 minute perfusion time we collected the effluent from the stomach and measure intragastric pH in this fluid following a protocol that we have used in the past.

Setting [1] is: listed as zinc sulfate heptahydate.

Read-outs that look alike come from different tables or passages of the source.

For the compound `O.O.O.O.O.O.O.O=S(=O)([O-])[O-].[Zn+2]` [zinc sulfate heptahydrate], the “basal acid secretion in the gland” value with isolated glands (3 μM in drinking water for 7 days, versus blank water) is recorded as “slightly higher than blank water”; in the test on isolated glands (30 μM, 1 week ad lib access), “no basal acid secretion”. In addition, in the test with isolated glands (3 μM in drinking water for 7 days, versus matched controls), the “Carbachol (secretagogue) induced acid secretion” value is reported as “marked suppression”. The “secretagogue (carbachol) induced acid secretion in the gland” value in the test with isolated glands (30 μM, 1 week ad lib access) is given as “no effect”. Moreover, in the test with isolated human glands (doses of 300 μM and 3 μM, Carbachol, means from 5 human samples), the “inhibition of proton extrusion (acid secretion)” value is “highly significant inhibition of proton extrusion (p<0.0001)”. Moreover, the “inhibitory effect on secretagogue induced acid secretion, in words” value with isolated human glands (listed as ZnSO4.7H2O) is “potent inhibitor”; in the test on isolated human glands (setting [1]), “abolishing the activity of the gastric H^+,K^+-ATPase”; in the test with isolated gastric glands (listed as ZnSO4.7H2O), “potent inhibitor”; in the test with isolated gastric glands (setting [1]), “abolishing the activity of the gastric H^+,K^+-ATPase”. Also, the “inhibiting acid secretion in the stomach” value with isolated gastric glands (about 0.3 μM to about 300 μM, more often about 3 μM to about 30 μM) is “almost complete inhibition”. For the same compound, the “reduction in secretagogue induced proton secretion (proton extrusion, acid production)” value is reported as “p<0.03 significant reduction” in the test on isolated gastric glands (dose of 0.03 μM); “modest yet significant inhibition of acid secretion (p<0.03)” in the test on isolated gastric glands (dose of 0.03 μM, listed as ZnSO4.7H2O); “significant p<0.0001 reduction” in the test with isolated gastric glands (doses from 300 to 0.3 μM); “highly significant inhibition of proton extrusion (p<0.0001)” with isolated gastric glands (doses from 300 to 0.3 μM, listed as ZnSO4.7H2O). Besides, the “elevation in gastric pH” value in the test with isolated stomachs (3 μM, listed as ZnSO4Heptahydrate) was ≥ 1 pH unit; in the test with isolated stomachs (3 μM, listed as ZnSO4.7H2O), 1 pH unit; in the test on isolated stomachs (30 μM, listed as ZnSO4Heptahydrate), ≥ 1 pH unit; with isolated stomachs (30 μM, listed as ZnSO4.7H2O), 1 pH unit.

Source of the values: patent publication US20170209489A1, “FAST ACTING INHIBITOR OF GASTRIC ACID SECRETION WITH ENHANCED ACTIVITY” (YALE UNIVERSITY, priority 2014, published 2017).
